Assay results from ChEMBL document CHEMBL1649467, “Impact of human serum albumin on oritavancin in vitro activity against enterococci” (Antimicrob Agents Chemother, 2009).
In brackets after ≈: the same amount, converted by molar mass.

Experiments:
Enterococcus faecium [1] = assay: Bactericidal activity against vancomycin-resistant Enterococcus faecium ATCC 51559 expressing vanA gene assessed as change in bacterial count at 2 ug/ml by time-kill assay; format: functional
Enterococcus faecalis [2] = assay: Antimicrobial activity against vancomycin-susceptible Enterococcus faecalis ATCC 29212 by broth dilution method; format: functional
Enterococcus faecalis [3] = assay: Bactericidal activity against vancomycin-resistant Enterococcus faecalis 1058946 expressing vanA gene assessed as change in bacterial count at 32 ug/ml by time-kill assay; format: functional
[4] = Cmax in healthy human male at 200 mg, iv every 24 hrs by LC/MS/MS analysis; format: ADME, organism-based; design: dose 200 mg, route intravenous; conditions: in vivo
Enterococcus faecium [5] = assay: Bactericidal activity against vancomycin-resistant Enterococcus faecium 1059060 expressing vanA gene assessed as change in bacterial count at 32 ug/ml by time-kill assay; format: functional
Enterococcus faecium [6] = assay: Bactericidal activity against vancomycin-resistant Enterococcus faecium 1059060 expressing vanA gene assessed as change in bacterial count at 2 ug/ml by time-kill assay; format: functional
Enterococcus faecalis [7] = assay: Selectivity ratio of MIC for Enterococcus faecalis ATCC 51299 in presence of 4% HSA to MIC for Enterococcus faecalis 51299; format: functional
Enterococcus faecium [8] = assay: Bactericidal activity against vancomycin-resistant Enterococcus faecium ATCC 51559 expressing vanA gene assessed as change in bacterial count at 32 ug/ml by time-kill assay; format: functional
Enterococcus faecium [9] = assay: Antimicrobial activity against vancomycin-resistant Enterococcus faecium 1059060 by broth dilution method in presence of 4% HSA; format: functional
[10] = Free fraction in healthy human male at 200 mg, iv every 24 hrs by LC/MS/MS analysis; format: ADME, organism-based; conditions: in vivo
Enterococcus faecalis [11] = assay: Selectivity ratio of MIC for Enterococcus faecalis ATCC 29212 in presence of 4% HSA to MIC for Enterococcus faecalis ATCC 29212; format: functional
Enterococcus faecium [12] = assay: Antimicrobial activity against vancomycin-resistant Enterococcus faecium ATCC 51559 by broth dilution method; format: functional
Enterococcus faecium [13] = assay: Bactericidal activity against vancomycin-resistant Enterococcus faecium 1119175 expressing vanB gene assessed as change in bacterial count at 32 ug/ml by time-kill assay; format: functional
Enterococcus faecalis [14] = assay: Antimicrobial activity against vancomycin-resistant Enterococcus faecalis ATCC 51299 by broth dilution method in presence of 4% HSA; format: functional
Enterococcus faecium [15] = assay: Antimicrobial activity against vancomycin-resistant Enterococcus faecium 1119175 by broth dilution method; format: functional
Enterococcus faecalis [16] = assay: Bactericidal activity against vancomycin-susceptible Enterococcus faecalis ATCC 29212 assessed as change in bacterial count at 2 ug/ml by time-kill assay; format: functional
Enterococcus faecalis [17] = assay: Antimicrobial activity against vancomycin-resistant Enterococcus faecalis 1058946 by broth dilution method; format: functional
Enterococcus faecalis [18] = assay: Antimicrobial activity against vancomycin-resistant Enterococcus faecalis ATCC 51299 by broth dilution method; format: functional
Enterococcus faecium [19] = assay: Antimicrobial activity against vancomycin-resistant Enterococcus faecium ATCC 51559 by broth dilution method in presence of 4% HAS; format: functional
Enterococcus faecalis [20] = assay: Bactericidal activity against vancomycin-susceptible Enterococcus faecalis ATCC 29212 assessed as change in bacterial count at 32 ug/ml by time-kill assay; format: functional
Enterococcus faecalis [21] = assay: Selectivity ratio of MIC for Enterococcus faecalis 1058946 in presence of 4% HSA to MIC for Enterococcus faecalis 1058946; format: functional
Enterococcus faecium [22] = assay: Antimicrobial activity against vancomycin-resistant Enterococcus faecium 1059060 by broth dilution method; format: functional
Enterococcus faecalis [23] = assay: Bactericidal activity against vancomycin-resistant Enterococcus faecalis 1058946 expressing vanA gene assessed as change in bacterial count at 2 ug/ml by time-kill assay; format: functional
Enterococcus faecium [24] = assay: Antimicrobial activity against vancomycin-resistant Enterococcus faecium 1119175 by broth dilution method in presence of 4% HSA; format: functional
Enterococcus faecium [25] = assay: Bactericidal activity against vancomycin-resistant Enterococcus faecium 1119175 expressing vanB gene assessed as change in bacterial count at 2 ug/ml by time-kill assay; format: functional
Enterococcus faecalis [26] = assay: Antimicrobial activity against vancomycin-resistant Enterococcus faecalis 1058946 by broth dilution method in presence of 4% HSA; format: functional
Enterococcus faecalis [27] = assay: Bactericidal activity against vancomycin-resistant Enterococcus faecalis ATCC 51299 expressing vanB gene assessed as change in bacterial count at 32 ug/ml by time-kill assay; format: functional
Enterococcus faecium [28] = assay: Selectivity ratio of MIC for Enterococcus faecium 1059060 in presence of 4% HSA to MIC for Enterococcus faecium 1059060; format: functional
Enterococcus faecium [29] = assay: Selectivity ratio of MIC for Enterococcus faecium ATCC 51559 in presence of 4% HSA to MIC for Enterococcus faecium ATCC 51559; format: functional
Enterococcus faecalis [30] = assay: Antimicrobial activity against vancomycin-susceptible Enterococcus faecalis ATCC 29212 by broth dilution method in presence of 4% HSA; format: functional
Enterococcus faecalis [31] = assay: Bactericidal activity against vancomycin-resistant Enterococcus faecalis ATCC 51299 expressing vanB gene assessed as change in bacterial count at 2 ug/ml by time-kill assay; format: functional
Enterococcus faecium [32] = assay: Bactericidal activity against vancomycin-resistant Enterococcus faecium 1119175 expressing vanB gene assessed as change in bacterial count at 64 ug/ml by time-kill assay; format: functional
Enterococcus faecium [33] = assay: Bactericidal activity against vancomycin-resistant Enterococcus faecium 1059060 expressing vanA gene assessed as change in bacterial count at 64 ug/ml by time-kill assay; format: functional
Enterococcus faecalis [34] = assay: Bactericidal activity against vancomycin-resistant Enterococcus faecalis ATCC 51299 expressing vanB gene assessed as change in bacterial count at 16 ug/ml by time-kill assay; format: functional
[35] = Free fraction in healthy human male at 1000 mg, iv every 12 hrs by LC/MS/MS analysis; format: ADME, organism-based; conditions: in vivo
Enterococcus faecalis [36] = assay: Bactericidal activity against vancomycin-resistant Enterococcus faecalis 1058946 expressing vanA gene assessed as change in bacterial count at 64 ug/ml by time-kill assay; format: functional
Enterococcus faecium [37] = assay: Bactericidal activity against vancomycin-resistant Enterococcus faecium ATCC 51559 expressing vanA gene assessed as change in bacterial count at 64 ug/ml by time-kill assay; format: functional
Enterococcus faecalis [38] = assay: Bactericidal activity against vancomycin-resistant Enterococcus faecalis 1058946 expressing vanA gene assessed as change in bacterial count at 16 ug/ml by time-kill assay; format: functional
Enterococcus faecium [39] = assay: Bactericidal activity against vancomycin-resistant Enterococcus faecium ATCC 51559 expressing vanA gene assessed as change in bacterial count at 16 ug/ml by time-kill assay; format: functional
Enterococcus faecium [40] = assay: Bactericidal activity against vancomycin-resistant Enterococcus faecium 1119175 expressing vanB gene assessed as change in bacterial count at 16 ug/ml by time-kill assay; format: functional
Enterococcus faecalis [41] = assay: Bactericidal activity against vancomycin-resistant Enterococcus faecalis ATCC 51299 expressing vanB gene assessed as change in bacterial count at 64 ug/ml by time-kill assay; format: functional
Enterococcus faecalis [42] = assay: Bactericidal activity against vancomycin-susceptible Enterococcus faecalis ATCC 29212 assessed as change in bacterial count at 16 ug/ml by time-kill assay; format: functional
Enterococcus faecium [43] = assay: Bactericidal activity against vancomycin-resistant Enterococcus faecium 1059060 expressing vanA gene assessed as change in bacterial count at 16 ug/ml by time-kill assay; format: functional
[44] = Cmax in healthy human male at 1000 mg, iv every 12 hrs by LC/MS/MS analysis; format: ADME, organism-based; design: dose 1000 mg, route intravenous; conditions: in vivo
Enterococcus faecalis [45] = assay: Bactericidal activity against vancomycin-susceptible Enterococcus faecalis ATCC 29212 assessed as change in bacterial count at 64 ug/ml by time-kill assay; format: functional

SMILES: CN[C@H](CC(C)C)C(=O)N[C@H]1C(=O)N[C@@H](CC(N)=O)C(=O)N[C@H]2C(=O)N[C@H]3C(=O)N[C@H](C(=O)N[C@H](C(=O)O)c4cc(O)cc(O)c4-c4cc3ccc4O)[C@H](O[C@H]3C[C@](C)(N)[C@@H](O)[C@H](C)O3)c3ccc(c(Cl)c3)Oc3cc2cc(c3O[C@@H]2O[C@H](CO)[C@@H](O)[C@H](O)[C@H]2O[C@H]2C[C@](C)(NCc3ccc(-c4ccc(Cl)cc4)cc3)[C@@H](O)[C@H](C)O2)Oc2ccc(cc2Cl)[C@H]1O [ORITAVANCIN]
- log10CFU/ml (Enterococcus faecium [1]): 1.1
- MIC (Enterococcus faecalis [2]): 0.008 µg/mL (≈ 0.00446 µM)
- log10CFU/ml (Enterococcus faecalis [3]): -1.2
- Cmax [4]: 32000 ng/mL
- log10CFU/ml (Enterococcus faecium [5]): -0.85
- log10CFU/ml (Enterococcus faecium [6]): 1
- Ratio (Enterococcus faecalis [7]): 8
- log10CFU/ml (Enterococcus faecium [8]): -1.2
- MIC (Enterococcus faecium [9]): 4 µg/mL
- fraction unbound at 24 h [10]: 0.12
- Ratio (Enterococcus faecalis [11]): 2
- MIC (Enterococcus faecium [12]): 0.25 µg/mL (≈ 0.139 µM)
- log10CFU/ml (Enterococcus faecium [13]): -1.4
- MIC (Enterococcus faecalis [14]): 0.06 µg/mL
- MIC (Enterococcus faecium [15]): 0.016 µg/mL (≈ 0.00892 µM)
- log10CFU/ml (Enterococcus faecalis [16]): -0.48
- MIC (Enterococcus faecalis [17]): 0.5 µg/mL (≈ 0.279 µM)
- MIC (Enterococcus faecalis [18]): 0.008 µg/mL (≈ 0.00446 µM)
- MIC (Enterococcus faecium [19]): 0.5 µg/mL
- log10CFU/ml (Enterococcus faecalis [20]): -3.3
- Ratio (Enterococcus faecalis [21]): 4
- MIC (Enterococcus faecium [22]): 0.5 µg/mL (≈ 0.279 µM)
- log10CFU/ml (Enterococcus faecalis [23]): 1.4
- MIC (Enterococcus faecium [24]): 0.01 µg/mL
- log10CFU/ml (Enterococcus faecium [25]): 1.5
- MIC (Enterococcus faecalis [26]): 2 µg/mL
- log10CFU/ml (Enterococcus faecalis [27]): -1.6
- Ratio (Enterococcus faecium [28]): 8
- Ratio (Enterococcus faecium [29]): 2
- MIC (Enterococcus faecalis [30]): 0.016 µg/mL
- log10CFU/ml (Enterococcus faecalis [31]): -1.2

SMILES: CN[C@H](CC(C)C)C(=O)N[C@H]1C(=O)N[C@@H](CC(N)=O)C(=O)N[C@H]2C(=O)N[C@H]3C(=O)N[C@H](C(=O)N[C@H](C(=O)O)c4cc(O)cc(O)c4-c4cc3ccc4O)[C@H](O)c3ccc(c(Cl)c3)Oc3cc2cc(c3O[C@@H]2O[C@H](CO)[C@@H](O)[C@H](O)[C@H]2O[C@H]2C[C@](C)(N)[C@H](O)[C@H](C)O2)Oc2ccc(cc2Cl)[C@H]1O [VANCOMYCIN]
- log10CFU/ml (Enterococcus faecium [32]): 1.2
- log10CFU/ml (Enterococcus faecium [33]): 2.2
- log10CFU/ml (Enterococcus faecalis [34]): 2.3
- MIC (Enterococcus faecalis [2]): 2 µg/mL (≈ 1.38 µM)
- fraction unbound at 12 h [35]: 0.54
- log10CFU/ml (Enterococcus faecalis [36]): 2.3
- log10CFU/ml (Enterococcus faecium [37]): 2.2
- log10CFU/ml (Enterococcus faecalis [38]): 2.5
- MIC (Enterococcus faecium [9]): > 128 µg/mL
- log10CFU/ml (Enterococcus faecium [39]): 2.6
- log10CFU/ml (Enterococcus faecium [40]): 1.1
- MIC (Enterococcus faecium [12]): > 128 µg/mL
- MIC (Enterococcus faecalis [14]): 128 µg/mL
- log10CFU/ml (Enterococcus faecalis [41]): 0.85
- MIC (Enterococcus faecium [15]): > 128 µg/mL
- log10CFU/ml (Enterococcus faecalis [42]): -1.7
- MIC (Enterococcus faecalis [17]): > 128 µg/mL
- log10CFU/ml (Enterococcus faecium [43]): 2.3
- MIC (Enterococcus faecalis [18]): 128 µg/mL (≈ 88.3 µM)
- MIC (Enterococcus faecium [19]): > 128 µg/mL
- Cmax [44]: 64000 ng/mL
- MIC (Enterococcus faecium [22]): > 128 µg/mL
- MIC (Enterococcus faecium [24]): > 128 µg/mL
- MIC (Enterococcus faecalis [26]): > 128 µg/mL
- log10CFU/ml (Enterococcus faecalis [45]): -0.76
- MIC (Enterococcus faecalis [30]): 2 µg/mL
